According to patent publication US4960770A, “2-alkyl thieno(triazolo)diazepine compounds and pharmaceutical uses thereof” (Yoshitomi Pharmaceutical Industries, Ltd., priority 1987, dated 1990):
pIC50: −log10 of the molar value. Values after ≈ are worked out from the molar mass of the structure shown. Read-outs that look alike come from different tables or passages of the source.

Assays:
[1] = test system: PAF-induced platelet aggregation; experiment: Inhibitory effect on platelet aggregation in rabbits (in vitro test); assay type: cell-based; settings: Oryctolagus cuniculus, rabbit PRP, PAF 1.8×10^-7 M, 37° C., read-out: Inhibition of PAF-induced platelet aggregation, IC50
Description: (§1) Blood samples to which was added 0.1 volume of 3.8% sodium citrate were collected from rabbits. Platelet rich plasma (PRP) was prepared by centrifuging the blood sample at 200 x g for 10 minutes, and platelet poor plasma (PPP) was prepared by centrifuging the remaining blood sample at 1000 x g for 10 minutes.
(§2) Aggregation ability was measured with a turbidimetric device (6-channel NKK Hematracer 1, model PAT-6A) according to the method of G.V.R. Born described in J. Physiology, vol. 168, p. 178 (1963). The aggregometer was adjusted in sensitivity to give light transmission values of 0 and 100% for PRP and PPP, respectively. With stirring at 1000 rpm, 0.3 μl of test compound solution or vehicle was added to 0.3 ml of PRP. After the mixture was kept at 37° C. for 2 minutes, to the mixture was added 3 μl of synthesized platelet activating factor at the final concentration of 1.8×10^-7 M and the light transmission was recorded for 5 minutes.
(§3) The inhibition percentage of test compounds on platelet aggregation were calculated from the following formula by measuring the maximal light transmission in the presence and absence of the test compounds. [formula]

[2] = test system: PAF-induced platelet aggregation; experiment: Inhibitory effect on platelet aggregation in rabbits (ex vivo test); settings: 10 mg/kg p.o.; for inhibition at 10 mg/kg: Oryctolagus cuniculus, Platelet, po, read-out: % of inhibition after administration
Description: as §1, §2, §3
Test compound was orally administered to a group of three rabbits instead of adding it to PRP as in vitro test of Experiment 2, and then the citrated blood samples (1 volume of 3.8% sodium citrate +9 volumes of blood) were collected with the passage of time. Then, the blood samples were employed to determine the inhibitory effect according to Experiment 2.

PAF-induced lethal shock = experiment: Effect of PAF-induced lethal shock in mice; assay type: in vivo, male ICR mice; settings: 1 hour before PAF 80 μg/kg i.v., 24 hours
Description: The experiment was carried out according to the method of Young et al. described in Prostaglandins, vol. 30, p. […] Groups of 9 to 15 male ICR mice (Charles River) weighing 25-30 g were used. 80 μg/kg of PAF (Serdary Research Labo.) solution was intravenously administered in a lateral tail vein 1 hour after the oral administration of test compound (0.1 ml/10 g). […] Results were given as number of survivors/number of employed animals and survival rates (%) in Table 4.

[3] = target: calcium/calmodulin dependent phosphodiesterase; experiment: Effect on calcium/calmodulin dependent phosphodiesterase; assay type: biochemical; settings: [3H]-cAMP, pH 8.0, 37° C., 20 minutes; read-out: Inhibitory action on calcium/calmodulin dependent phosphodiesterase IC50
Description: The experiment was carried out according to the method of Thompson et al. described in Advances in Cyclic Nucleotide Research, Vol. 10, p. 69 (1979). Briefly, the solution of which final volume was 200μl was prepared by mixing 40 μl of 200 mM Tris-HCl buffer solution (pH 8.0), containing 25 mM magnesium chloride and 0.5 mM ethyleneglycol-bis(β-aminoethylether)-N,N '-tetra acetic acid (EGTA), 20 μof 10μM [^3 H]-cAMP (250 nCi), test compound and a solution of calcium/calmodulin dependent phosphodiesterase (PDE) enzyme. The test compound was dissolved in dimethyl sulfoxide to give 1% of final concentration. The incubation was performed at 37° C. for 20 minutes and then stopped by heating for 1 minutes in a boiling water bath. The resulting 5'-AMP was converted into adenosine by adding 50 μl of snake venom (1 mg/ml) and incubating at 30° C. for 10 minutes. Then, to the solution was added 500 μl of AGI-X8 (methanol:resin=3:2) and the mixture was allowed to stand under ice-cooling for 15 minutes with occasional shaking to adsorb the unreacted cAMP. After centrifuging, the radioactivity of the supernatant was measured by a liquid scintillation counter.
The action of the test compound on PDE activity was studied by calculating the inhibition percentage in the absence of calcium/calmodulin from the following formula, and represented as IC50 value. [formula] a: PDE activity in the presence of test compound and in the absence of calmodulin
b: PDE activity in the absence of test compound and calmoduline

[4] = test system: coronary artery blood flow; experiment: Effect on coronary flow (coronary artery blood flow in anesthetized dogs); assay type: in vivo, mongrel dogs; settings: relative to flow increase at 3 μg nifedipine
Description: Adult mongrel dogs were anesthetized with sodium pentobarbital (30 mg/kg, i.v.). According to the method of Yago et al described in Folia Pharmacologica Japonica, vol. 57, p. 380 (1961), the left coronary artery was perfused and its blood flow was measured. Test compound was injected into the coronary artery at a volume of 10-30 μl. To determine the effect of the test compound on coronary artery blood flow, an increase percentage of blood flow at each dosage was calculated based on the increase of the blood flow at a dosage of 3 μg of nifedipine.

vertebral blood flow = experiment: Effect of vertebral blood flow (anesthetized dogs); assay type: in vivo, mongrel dogs; settings: Canis lupus familiaris; dose required to obtain 100% of the flow increase by intraartery 3 μg/kg nifedipine
Description: Adult mongrel dogs were anesthetized with sodium pentobarbital (30 mg/kg. i.v.) and the blood flow of the left vertebral artery was measured.

[5] = target: T1, calmodulin (bovine encephalon) (Bos taurus, UniProt P62157); experiment: Calmodulin inhibitory action (NPN fluorescence probe method); assay type: biochemical
T1 construct: calmodulin (bovine encephalon); from tissue; host or cells: bovine encephalon (brain)
Description: Calmodulin inhibitory action was measured according to the modified method of Epstein et al. described in Biochemical and Biophysical Research Communications, Vol. 105, p. 1142 (1982). Briefly, to 25 mM Tris-HCl buffer solution (pH 7.0) were added as a final concentration 1 mM calcium chloride, 5 μM N-phenyl-1-naphthylamine (NPN), 1000 units of calmodulin (bovine encephalon) and each of test compound to give 3 ml of final solution volume. The solution was allowed to stand at room temperature for 1 hour and the fluorescence intensity was measured by a fluorescene photometer (ex. 350 nm, em. 440 nm). A blank was prepared by adding water instead of calmodulin. Each of test compound was dissolved in dimethyl sulfoxide or 2.5% dimethyl sulfoxide solution and the final concentration of dimethyl sulfoxide was adjusted to 0.25%.

[6] = dosage 30 μg into coronary artery
[7] = dosage 100 μg into coronary artery
[8] = dosage 300 μg into coronary artery

For `CCc1cc2c(s1)-n1c(C)nnc1CN=C2c1ccccc1Cl` [Etizolam, 6-(o-chlorophenyl)-8-ethyl-1-methyl-4H-s-triazolo[3,4-c]thieno[2,3-e][1,4]diazepine, reference compound], the IC50 [1] was 1.3 µg/mL (≈ 3.79 µM) and the “% of inhibition at each time after administration (in words)” value ([2]; one entry for 1, 3 and 6 hours) was “no effect”.

`CCCCCCc1cc2c(s1)-n1c(C)nnc1CN=C2c1ccccc1Cl` [Example 54, 4-(2-chlorophenyl)-2-hexyl-9-methyl-6H-thieno[3,2-f][1,2,4]triazolo[4,3-a][1,4]diazepine] gave an IC50 [1] of 0.03 to 0.1 µg/mL (≈ 0.0752 to 0.251 µM), an inhibition at 10 mg/kg ([2]; 1 hour) of 100% and an inhibition at 10 mg/kg ([2]; 3 hours) of 100%. The inhibition at 10 mg/kg ([2]; 6 hours) was 85%, the “Number of Survivors/Number of Animals” value (PAF-induced lethal shock; 0.3 mg/kg p.o.) was 3/10 and the Survival rate (PAF-induced lethal shock; 0.3 mg/kg p.o.) was 30%. The “Number of Survivors/Number of Animals” value (PAF-induced lethal shock; 3 mg/kg p.o.) was 10/10 and the Survival rate (PAF-induced lethal shock; 3 mg/kg p.o.) was 100%.

With `CCCCCCc1cc2c(s1)-n1c(C)nnc1CN=C2c1ccccc1OC` [Example 55, 2-hexyl-4-(2-methoxyphenyl)-9-methyl-6H-thieno[3,2-f][1,2,4]triazolo[4,3-a][1,4]diazepine] the IC50 [1] was 0.03 to 0.1 µg/mL (≈ 0.076 to 0.253 µM).

`CCCCCCCCc1cc2c(s1)-n1c(C)nnc1CN=C2c1ccccc1Cl` [Example 57, 4-(2-chlorophenyl)-2-octyl-9-methyl-6H-thieno[3,2-f][1,2,4]triazolo[4,3-a][1,4]diazepine] was tested, and the IC50 [1] was 0.01 to 0.1 µg/mL (≈ 0.0234 to 0.234 µM) and the pIC50 [3] was 4.96.

With `CCCCCCc1cc2c(s1)-n1c(C)nnc1CN=C2c1ccccc1C` [Example 58, 2-hexyl-4-(2-methylphenyl)-9-methyl-6H-thieno[3,2-f][1,2,4]triazolo[4,3-a][1,4]diazepine] the “Effect on coronary blood flow” value [4, 6] was 63%, the “Effect on coronary blood flow” value [4, 7] was 107% and the “Effect on coronary blood flow” value [4, 8] was 136%.

`CCCCCCc1cc2c(s1)-n1c(C)nnc1CN=C2c1ccc(C)cc1` [Example 61, 2-hexyl-4-(4-methylphenyl)-9-methyl-6H-thieno[3,2-f][1,2,4]triazolo[4,3-a][1,4]diazepine] was tested, and the “Effect on coronary blood flow” value [4, 6] was 55%, the “Effect on coronary blood flow” value [4, 7] was 69% and the “Effect on coronary blood flow” value [4, 8] was 103%. For the same molecule, the “Number of Survivors/Number of Animals” value (PAF-induced lethal shock; 1 mg/kg p.o.) was 6/8, the Survival rate (PAF-induced lethal shock; 1 mg/kg p.o.) was 75% and the “Number of Survivors/Number of Animals” value (PAF-induced lethal shock; 3 mg/kg p.o.) was 8/8. The Survival rate (PAF-induced lethal shock; 3 mg/kg p.o.) was 100%.

With `CCCCCCc1cc2c(s1)-n1c(C)nnc1CN=C2c1cccc(C)c1` [Example 62, 2-hexyl-4-(3-methylphenyl)-9-methyl-6H-thieno[3,2-f][1,2,4]triazolo[4,3-a][1,4]diazepine] the “Number of Survivors/Number of Animals” value (PAF-induced lethal shock; 3 mg/kg p.o.) was 6/8, the Survival rate (PAF-induced lethal shock; 3 mg/kg p.o.) was 75% and the pIC50 [3] was 4.96.

`CCCCCCc1cc2c(s1)-n1c(C)nnc1CN=C2c1cc(C)ccc1C` [Example 65, 2-hexyl-4-(2,5-dimethylphenyl)-9-methyl-6H-thieno[3,2-f][1,2,4]triazolo[4,3-a][1,4]diazepine] showed an ED100 (vertebral blood flow) of 0.099 mg/kg and a pIC50 [3] of 4.70.

With `CCCCCCc1cc2c(s1)-n1c(C)nnc1CN=C2c1cc(OC)c(OC)c(OC)c1` [Example 67, 2-hexyl-4-(3,4,5-trimethoxyphenyl)-9-methyl-6H-thieno[3,2-f][1,2,4]triazolo[4,3-a][1,4]diazepine] the “Effect on coronary blood flow” value [4, 6] was 43%, the “Effect on coronary blood flow” value [4, 7] was 86% and the “Effect on coronary blood flow” value [4, 8] was 114%. For the same molecule, the ED100 (vertebral blood flow) was 0.078 mg/kg and the pIC50 [3] was 5.15.

For `CCCCCCc1cc2c(s1)-n1c(C)nnc1C(C)N=C2c1ccccc1C` (stereo not shown) [Example 68, 2-hexyl-4-(2-methylphenyl)-6,9-dimethyl 6H-thieno[3,2-f][1,2,4]triazolo[4,3-a][1,4]diazepine], the “Effect on coronary blood flow” value [4, 6] was 33%, the “Effect on coronary blood flow” value [4, 7] was 63% and the “Effect on coronary blood flow” value [4, 8] was 100%. For the same molecule, the “Number of Survivors/Number of Animals” value (PAF-induced lethal shock; 0.1 mg/kg p.o.) was 5/6, the Survival rate (PAF-induced lethal shock; 0.1 mg/kg p.o.) was 83.3% and the “Number of Survivors/Number of Animals” value (PAF-induced lethal shock; 0.3 mg/kg p.o.) was 6/7. The Survival rate (PAF-induced lethal shock; 0.3 mg/kg p.o.) was 85.7%, the “Number of Survivors/Number of Animals” value (PAF-induced lethal shock; 1 mg/kg p.o.) was 6/7 and the Survival rate (PAF-induced lethal shock; 1 mg/kg p.o.) was 85.7%. For the same molecule, the pIC50 [5] was 5.96.

`CCCCCCCCCCc1cc2c(s1)-n1c(C)nnc1CN=C2c1ccccc1OC` [Example 69, 2-decyl-4-(2-methoxyphenyl)-9-methyl-6H-thieno[3,2-f][1,2,4]triazolo[4,3-a][1,4]diazepine] was tested, and the IC50 [1] was 0.3 to 1 µg/mL (≈ 0.666 to 2.22 µM).

Work on `CCCCCCCCCCc1cc2c(s1)-n1c(C)nnc1CN=C2c1ccccc1Cl` [Example 72, 4-(2-chlorophenyl)-2-decyl-9-methyl 6H-thieno[3,2-f][1,2,4]triazolo[4,3-a][1,4]-diazepine] yielded an IC50 [1] of 0.03 to 0.1 µg/mL (≈ 0.0659 to 0.22 µM).

In the case of `CCCCCCCCCCCCc1cc2c(s1)-n1c(C)nnc1CN=C2c1ccccc1Cl` [Example 73, 4-(2-chlorophenyl)-2-dodecyl-9-methyl-6H-thieno[3,2-f][1,2,4]triazolo[4,3-a][1,4]-diazepine], the IC50 [1] was 0.3 to 1 µg/mL (≈ 0.621 to 2.07 µM).

In the case of `CCCCCCc1cc2c(s1)-n1c(C)nnc1C(C)N=C2c1ccccc1Cl` (stereo not shown) [Example 74, 4-(2-chlorophenyl)-2-hexyl-6,9-dimethyl-6H-thieno[3,2-f][1,2,4]triazolo[4,3-a][1,4]diazepine], the “Effect on coronary blood flow” value [4, 6] was 16%, the “Effect on coronary blood flow” value [4, 7] was 57% and the “Effect on coronary blood flow” value [4, 8] was 86%. The “Number of Survivors/Number of Animals” value (PAF-induced lethal shock; 0.1 mg/kg p.o.) was 5/6, the Survival rate (PAF-induced lethal shock; 0.1 mg/kg p.o.) was 83.3% and the “Number of Survivors/Number of Animals” value (PAF-induced lethal shock; 1 mg/kg p.o.) was 7/7. For the same molecule, the Survival rate (PAF-induced lethal shock; 1 mg/kg p.o.) was 100% and the pIC50 [5] was 5.92.

With `CCOC(=O)C1=C[C@]2(CC)CCCN3CCc4c(n1c1ccccc41)[C@@H]32` [vinpocetine, reference compound] the pIC50 [3] was 4.06.
